According to patent US20040176313A1, “Inhibitors of Src kinase for use in alzheimer's disease” (Aventis Pharma S.A., priority 2002, published 2004):

Columns and labels:
[1] = test system: Aβ secretion, CHO cells stably overexpressing APP751; assay: Aβ secretion from CHO cells stably overexpressing APP751 treated with PP2 or PP3 (FIG. 6); type: cell-based; settings: PP2 5 and 20 μM, PP3 20 μM (highest concentration), time points 1, 3 and 12 hours
Protocol: Therefore, a line of CHO cells stably overexpressing APP751 form was used, which secretes discrete levels of Aβ. If secretion involves endogenous Src activity, PP2 should be able to inhibit production of Aβ also in this cellular system.
(§1) Human embryonic kidney cells (HEK293) were cultured in Dulbecco's modified minimal medium supplemented with 10% fetal calf serum at 37° C. in a 5% CO2 atmosphere. For transfection, cells were grown for 16 hours in antibiotic-free medium, and transfected with Lipofectamine 2000 (Invitrogen) according to manufacturer's instructions. The total amount of DNA was maintained constant by addition of empty vector DNA. 48 hours after transfection, culture medium were recovered, while cells were harvested in ice-cold phosphate buffer saline (PBS) and gently lysed in lysis buffer (50 mM Tris/HCl, pH 7.5, 150 mM NaCl, 0.5% Triton X-100, 10% glycerol, 50 mM NaF, 1mM Na vanadate), in the presence of a protease inhibitor cocktail (Complete, EDTA-free, Roche). The extracts were clarified by centrifugation at 16,000×g at 4° C., and the protein concentration determined by the Bio-Rad protein assay according to manufacturer's instructions. […] Radioactive samples were resolved on 10% SDS-PAGE and quantitated with a Storm 840 phosphorimager (Amersham Pharmacia Biotech). […]

[2] = test system: Aβ secretion, HEK293 cells transfected with APP695 and SrcYF; assay: Aβ accumulation in culture medium of HEK293 cells co-transfected with APP695 and active Src (SrcYF), sandwich ELISA (FIG. 5); type: cell-based, Human; settings: exposure for 48 hours to 1, 5 and 20 μM PP2 or PP3, sandwich ELISA on culture medium
Protocol: as §1, with “48 hours after transfection, culture medium were recovered, while cells were harvested in ice-cold phosphate buffer saline (PBS) and gently lysed in lysis buffer (50 mM Tris/HCl, pH 7.5, 150 mM NaCl, 0.5% Triton X-100, 10% glycerol, 50 mM NaF, 1mM Na vanadate), in the presence of a protease inhibitor cocktail (Complete, EDTA-free, Roche).” left out
HEK293 cells were transfected with APP695 expression vectors. […] HEK293 cells were co-transfected with APP and either empty vector, or active Abl (Abl-PP), or active Src (SrcYF) kinases, and the secretion of APPsec and β were evaluated. […] Both medium and protein extracts have been used in immunoprecipitation experiments for quantitative dosage of radiolabeled APPsec and holo-APP, respectively. […]

Structure (SMILES) | amount of Aβ [1] | secreted Aβ [2]
Nc1ncnc2c1cnn2-c1ccccc1 [PP3] | has no effect | do not affect Aβ rise by SrcYF transfection
CC(C)(C)n1nc(-c2ccc(Cl)cc2)c2c(N)ncnc21 [PP2, 4-amino-5-(4-chlorophenyl)-7-(t-butyl)pyrazolo[3,4d]pyrimidine] | reduces in a dose-dependent manner the amount of Aβ | dose-dependent decrease of secreted AP
